This passage reports active concentration results from PubChem BioAssay AID977613 (Broad Institute, 2014).

This assay concerns Broad 7084-01 inhibitor HTS, set 2. Nature of the assay: inhibitors in Broad screen 7084-01, set 2 (AID 977613).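 Further: host cells are infected with parasite promastigotes that become internalized.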

Structures are written as SMILES. The source made the active and inactive calls. How the calls were made is not given here. Bounds are passed on as bounds.

Turning to `COc1ccc2c3c([nH]c2c1)[C@@H](CO)N(S(=O)(=O)c1ccc(C)cc1)CC31CCN(C(=O)Cc2cccnc2)CC1`, the active concentration is > 10 µM (inactive).
Regarding `COc1ccc2c3c([nH]c2c1)[C@H](CO)N(C(C)=O)CC31CN(Cc2ccccc2Cl)C1`, the active concentration was > 10 µM (inactive).
Regarding `COc1ccc2c3c(n(C)c2c1)[C@H](CO)N(C(=O)Nc1ccc(F)cc1)CC31CCN(C(=O)c2ccc3c(c2)OCO3)CC1`, the active concentration was > 10 µM (inactive).
With `COCC(=O)N1[C@H](CO)[C@H](c2ccccc2-c2ccccc2F)[C@@H]1C#N`, the active concentration was > 10 µM (inactive).
With `O=C(C[C@@H]1CC[C@H]2[C@@H](COC[C@@H](O)CN2Cc2cc(F)ccc2F)O1)NCc1ccc(F)cc1`, the active concentration was > 10 µM (inactive).
In the case of `COc1ccc(CN2[C@@H]3CNc4ccccc4[C@@H]3[C@@H]2CO)cc1`, the active concentration was > 10 µM (inactive).
In the case of `CC(C)NC(=O)N1CC2(C1)[C@H](c1ccccc1)[C@H](CO)N2CCC(F)(F)F`, the active concentration was > 10 µM (inactive).
As for `CCCNC(=O)N1[C@H](CO)[C@@H](c2ccccc2C2=CCCCC2)[C@@H]1C#N`, the active concentration is > 10 µM (inactive).
Regarding `Cc1ccc(CN2CC(=O)N3[C@H](C2)[C@H](c2ccc(-c4ccccc4F)cc2)[C@@H]3CO)cc1`, the active concentration was > 10 µM (inactive).
Take `CC(=O)N1CC[C@@H]2[C@@H](CO)Nc3ccc(C#Cc4cccnc4)cc3[C@@H]21`: the active concentration was > 10 µM (inactive).
Turning to `CCCC#Cc1ccc([C@@H]2[C@@H](CO)N3C(=O)CN(C(=O)CN4CCOCC4)C[C@@H]23)cc1`, the active concentration was > 10 µM (inactive).
Consider `O=C(Nc1ccccc1F)N1CC(=O)N2[C@@H](CO)[C@H](c3ccc(-c4cccnc4)cc3)[C@@H]2C1`, for which the active concentration was > 10 µM (inactive).
In the case of `CCN1CC(=O)N2[C@H](CO)[C@H](c3ccc(Br)cc3)[C@@H]2C1` it was > 10 µM (inactive).
With `O=C(Nc1cc(F)ccc1F)N1CCCCN2[C@@H](CO)[C@@H](c3ccc(C4=CCCCC4)cc3)[C@@H]2C1`, the active concentration was > 10 µM (inactive).
Consider `O=C(CC1CC1)N1[C@H](CO)[C@@H](c2ccccc2)C12CN(Cc1cccnc1)C2`, for which the active concentration was > 10 µM (inactive).
In the case of `CN1C[C@H](O)COC[C@H]2O[C@H](CC(=O)NC3CCCC3)CC[C@@H]21` it was > 10 µM (inactive).
For the compound `CC=Cc1ccc2n(c1=O)C[C@@H]1[C@@H](CO)[C@H](C(=O)NCC)N(C(=O)CC3CC3)[C@H]21` (mixture of isomers), the active concentration is > 10 µM (inactive).
For the compound `N#C[C@@H]1[C@@H](c2ccccc2-c2ccc(F)cc2)[C@H](CO)N1C(=O)Cc1cccnc1`, the active concentration was > 10 µM (inactive).
Consider `CCS(=O)(=O)Nc1ccc2c(c1)C(=O)N(C)[C@H]1CC[C@H](CC(=O)N[C@@H]3CCN(Cc4ccccc4)C3)O[C@@H]1CO2`, for which the active concentration is > 10 µM (inactive).
For the compound `CN(C)C(=O)c1cccc(-c2ccc([C@@H]3[C@@H](CO)N4C(=O)CN(C(=O)C5CCC5)C[C@@H]34)cc2)c1`, the active concentration was > 10 µM (inactive).
As for `O=C(C[C@H]1CC[C@@H]2[C@H](COC[C@H](O)CN2C(=O)C2CC2)O1)NCc1ccncc1`, the active concentration is > 10 µM (inactive).
`N#C[C@@H]1[C@@H](c2ccccc2-c2cccc(F)c2)[C@@H](CO)N1C(=O)C1CC1`: the active concentration was > 10 µM (inactive).
The figure for `O=C(c1ccccn1)N1CC[C@@H]2[C@@H](CO)Nc3ccc(Br)cc3[C@@H]21` is > 10 µM (inactive); for `O=C(C[C@H]1CC[C@@H]2[C@H](COC[C@H](O)CN2Cc2cc(F)ccc2F)O1)NCc1ccc(F)cc1` it is > 10 µM (inactive); for `CN1C(=O)c2cc(NC(=O)c3cccc(F)c3)ccc2OC[C@@H]2O[C@H](CC(=O)NCC3CCCCC3)CC[C@@H]21` it is > 10 µM (inactive).
The figure for `CC(C)CC#Cc1ccc([C@H]2[C@H](CO)N3C(=O)CN(C(=O)c4ccccn4)C[C@@H]23)cc1` is > 10 µM (inactive); for `O=C(C[C@@H]1CC[C@H]2[C@@H](COC[C@H](O)CN2Cc2nccs2)O1)NCc1ccccc1` it is > 10 µM (inactive).
Regarding `COCC(=O)N1[C@H](CO)[C@H]2c3ccccc3NC[C@H]21`, the active concentration is > 10 µM (inactive).
Take `O=C(O)[C@H]1[C@H](CO)[C@H]2Cn3c(ccc(C4=CCCCC4)c3=O)[C@@H]1N2C(=O)Cc1ccccn1`: the active concentration was > 10 µM (inactive).
With `CCCC#Cc1ccc([C@@H]2[C@H](CO)N3C(=O)CN(S(=O)(=O)c4ccccc4C)C[C@@H]23)cc1`, the active concentration was > 10 µM (inactive).
Consider `CCC(=O)N1CC2(C1)[C@@H](c1ccc(-c3ccc(F)cc3)cc1)[C@@H](CO)N2C(=O)CC`, for which the active concentration is > 10 µM (inactive).
For `COCC(=O)N1CC2(CCN(Cc3cccnc3)CC2)c2c(n(C)c3cc(OC)ccc23)[C@@H]1CO`, the active concentration is > 10 µM (inactive).
`CCC(=O)N1CC2(C1)[C@@H](c1ccc(-c3ccc(F)cc3)cc1)[C@H](CO)N2C(=O)CC`: the active concentration was > 10 µM (inactive).
In the case of `COc1ccc(C#Cc2ccc3c(c2)[C@H]2[C@H](CCN2C(=O)Nc2ccc(C(F)(F)F)cc2)[C@@H](CO)N3C)cc1`, the active concentration is > 10 µM (inactive).
With `CN(C)C(=O)c1cccc(-c2ccc([C@H]3[C@H](CO)N4CCCCN(CC5CCOCC5)C[C@@H]34)cc2)c1`, the active concentration is > 10 µM (inactive).
As for `O=C(Cc1ccncc1)N1CC(=O)N2[C@@H](CO)[C@H](c3ccc(Br)cc3)[C@@H]2C1`, the active concentration is > 10 µM (inactive).
On to `O=C(C1CCOCC1)N1CC(=O)N2[C@@H](CO)[C@@H](c3ccc(-c4cccnc4)cc3)[C@@H]2C1`, for which the active concentration was > 10 µM (inactive).
With `COc1cccc(CN2CCCCN3[C@H](C2)[C@H](c2ccc(-c4cccnc4)cc2)[C@@H]3CO)c1`, the active concentration was > 10 µM (inactive).
Consider `COc1ccc(NC(=O)N2CCCCN3[C@H](C2)[C@@H](c2ccc(-c4ccccc4F)cc2)[C@@H]3CO)cc1`, for which the active concentration was > 10 µM (inactive).
In the case of `CCC(=O)N1CC(=O)N2[C@H](CO)[C@H](c3ccc(-c4ccc(C#N)cc4)cc3)[C@@H]2C1` it was > 10 µM (inactive).
The figure for `CCS(=O)(=O)N1CC2(CN(C(=O)Cc3ccccn3)[C@H](CO)c3[nH]c4cc(OC)ccc4c32)C1` is > 10 µM (inactive); for `O=C(C[C@H]1CC[C@@H]2[C@H](COC[C@@H](O)CN2S(=O)(=O)c2ccccc2)O1)Nc1ccccc1` it is > 10 µM (inactive).
For the compound `Cc1ccccc1S(=O)(=O)N1CC[C@@H]2[C@H]1c1cc(C#Cc3ccccc3)ccc1N[C@@H]2CO`, the active concentration is > 10 µM (inactive).
The figure for `CN1CCN(C(=O)C[C@@H]2CC[C@@H]3[C@H](COC[C@@H](O)CN3CC3CC3)O2)CC1` is > 10 µM (inactive); for `O=C(C[C@H]1CC[C@@H]2[C@H](COC[C@H](O)CN2C(=O)c2ccccc2F)O1)NCc1ccccc1` it is > 10 µM (inactive).
In the case of `N#C[C@H]1[C@H](c2ccccc2-c2ccccc2F)[C@@H](CO)N1C(=O)C1CCC1`, the active concentration is > 10 µM (inactive).
As to `COc1ccccc1-c1ccccc1[C@H]1[C@@H](CO)N(C(=O)C2CCOCC2)[C@H]1C#N`, the active concentration is > 10 µM (inactive).
